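Dose response: 5 concentrations. Exposure: 48 h. Format: 96-well plates. Endpoint: linear interpolation; highest concentration if not reached. GI50 = concentration required for 50% inhibition of growth.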 The source made the active and inactive calls. Rule as the data show it: active = GI50 up to about 1.1 µM and inactive = higher.
Legend:
Assay in all cases: NCI anticancer screen, dose series, 48 h
LOX IMVI = system: LOX IMVI
OVCAR-4 = system: OVCAR-4
A549 = system: A549
UO-31 = system: UO-31
OVCAR-8 = system: OVCAR-8
SR = system: SR
HCT-15 = system: HCT-15
T47D = system: T47D
MOLT-4 = system: MOLT-4
HL-60 = system: HL-60
SNB-75 = system: SNB-75
HT-29 = system: HT-29
TK-10 = system: TK-10
SK-MEL-2 = system: SK-MEL-2
MCF7 = system: MCF7
SF-295 = system: SF-295
MDA-MB-435 = system: MDA-MB-435
SK-MEL-5 = system: SK-MEL-5
RPMI-8226 = system: RPMI-8226
MDA-N = system: MDA-N

SMILES | GI50 (LOX IMVI) | GI50 (OVCAR-4) | GI50 (A549) | GI50 (UO-31) | GI50 (OVCAR-8) | GI50 (SR) | GI50 (HCT-15) | GI50 (T47D) | GI50 (MOLT-4) | GI50 (HL-60) | GI50 (SNB-75) | GI50 (HT-29) | GI50 (TK-10) | GI50 (SK-MEL-2) | GI50 (MCF7) | GI50 (SF-295) | GI50 (MDA-MB-435) | GI50 (SK-MEL-5) | GI50 (RPMI-8226) | GI50 (MDA-N)
C/C(=N\Nc1nc2ccccc2o1)c1ncccn1 | 0.0115 µM (active) | < 0.01 µM (active) | 0.0908 µM (active) | < 0.0313 µM (active) | < 0.01 µM (active) | < 0.02 µM (active) | < 0.0211 µM | < 0.01 µM (active) | < 0.01 µM (active) | < 0.01 µM (active) | 1.85 µM (inactive) | < 0.01 µM (active) | 0.0675 µM (active) | 0.175 µM (active) | 0.0121 µM (active) | 0.0824 µM (active) | 0.0573 µM (active) | 0.0574 µM (active) | 0.0137 µM (active) | 0.3 µM (active)
O=C(c1cc(Cl)cc(Cl)c1)N(Cc1cccnc1)C(=S)N(Cc1cccnc1)C(=O)c1cc(Cl)cc(Cl)c1 | 34.1 µM (inactive) | 27.3 µM (inactive) | > 100 µM (inactive) | 24.8 µM (inactive) | 28.8 µM (inactive) | 16.1 µM (inactive) | 25.2 µM | 44.7 µM (inactive) | 38.9 µM (inactive) | 25.3 µM (inactive) | 92.7 µM (inactive) | 31.9 µM (inactive) | 31.3 µM (inactive) | 31.7 µM (inactive) | 5.69 µM (inactive) | 55.5 µM (inactive) | 85.9 µM (inactive) | 23.3 µM (inactive) | 4.37 µM (inactive) | 31.3 µM (inactive)
CC(C)NCC(O)c1cc(OCc2ccccc2)c(OCc2ccccc2)cc1NC(=O)CCC(=O)O (stereo not given) | 1.57 µM (inactive) | 11.5 µM (inactive) | 11.8 µM (inactive) | 5.77 µM (inactive) | 7.66 µM (inactive) | 2.34 µM (inactive) | 3.24 µM | 10 µM (inactive) | 3.64 µM (inactive) | 3.15 µM (inactive) | 10.6 µM (inactive) | 3.75 µM (inactive) | 7.53 µM (inactive) | 1.45 µM (inactive) | 5.69 µM (inactive) | 3.94 µM (inactive) | 5.05 µM (inactive) | 2.1 µM (inactive) | 2.81 µM (inactive) | 2.21 µM (inactive)
O=C(/C=C/c1ccccc1)C[C@@H](O)C[C@@H]1CC=CC(=O)O1 | 1.95 µM (inactive) | 15.2 µM (inactive) | 18.7 µM (inactive) | 9.18 µM (inactive) | 3.32 µM (inactive) | 2.84 µM (inactive) | 10.2 µM | 10.6 µM (inactive) | 2.65 µM (inactive) | 2.18 µM (inactive) | 16.7 µM (inactive) | 5.13 µM (inactive) | 14.9 µM (inactive) | 14.2 µM (inactive) | 3.94 µM (inactive) | 13.7 µM (inactive) | 4.86 µM (inactive) | 12.4 µM (inactive) | 2.61 µM (inactive) | 4.76 µM (inactive)
Cn1c(=O)c2nc(SCc3ccccn3)[nH]c2n(C)c1=S | > 100 µM (inactive) | > 100 µM (inactive) | > 100 µM (inactive) | 70.5 µM (inactive) | 56 µM (inactive) | > 100 µM (inactive) | > 100 µM | 66.8 µM (inactive) | > 100 µM (inactive) | > 100 µM (inactive) | 19.5 µM (inactive) | > 100 µM (inactive) | 86.7 µM (inactive) | 52.8 µM (inactive) | > 100 µM (inactive) | 34.2 µM (inactive) | > 100 µM (inactive) | > 100 µM (inactive) | > 100 µM (inactive) | > 100 µM (inactive)
NS(=O)(=O)c1ccc(/N=N/c2c(O)c(C(=O)O)cc3ccccc23)cc1 | 82.6 µM (inactive) | > 100 µM (inactive) | > 100 µM (inactive) | > 100 µM (inactive) | > 100 µM (inactive) | 33.3 µM (inactive) | > 100 µM | > 100 µM (inactive) | > 100 µM (inactive) | > 100 µM (inactive) | > 100 µM (inactive) | > 100 µM (inactive) | > 100 µM (inactive) | > 100 µM (inactive) | > 90.2 µM (inactive) | > 100 µM (inactive) | 45.4 µM (inactive) | 53.8 µM (inactive) | > 100 µM (inactive) | 59.2 µM (inactive)
COc1cc(C(=O)O)ccc1OS(=O)(=O)O | > 100 µM (inactive) | > 100 µM (inactive) | > 100 µM (inactive) | > 100 µM (inactive) | > 100 µM (inactive) | > 100 µM (inactive) | > 100 µM | > 100 µM (inactive) | > 100 µM (inactive) | > 100 µM (inactive) | > 100 µM (inactive) | > 100 µM (inactive) | > 100 µM (inactive) | > 100 µM (inactive) | > 100 µM (inactive) | > 100 µM (inactive) | > 100 µM (inactive) | > 100 µM (inactive) | > 100 µM (inactive) | > 100 µM (inactive)
Clc1nncc2sc(-c3ccccc3)nc12 | 14.7 µM (inactive) | 18.4 µM (inactive) | 53.8 µM (inactive) | 19.9 µM (inactive) | 20.1 µM (inactive) | 9.82 µM (inactive) | 7 µM | 28.5 µM (inactive) | 28.8 µM (inactive) | 4.14 µM (inactive) | 15.9 µM (inactive) | 20.3 µM (inactive) | 40.9 µM (inactive) | 16.4 µM (inactive) | 25.5 µM (inactive) | 27.1 µM (inactive) | 17.4 µM (inactive) | 15.6 µM (inactive) | 35.4 µM (inactive) | 21.6 µM (inactive)
CSc1c([S+](C)[O-])c2ccccc2n1C (stereo not given) | > 100 µM (inactive) | > 100 µM (inactive) | > 100 µM (inactive) | > 100 µM (inactive) | > 100 µM (inactive) | > 100 µM (inactive) | > 100 µM | > 100 µM (inactive) | > 100 µM (inactive) | > 100 µM (inactive) | 10.8 µM (inactive) | > 100 µM (inactive) | > 100 µM (inactive) | > 100 µM (inactive) | > 100 µM (inactive) | > 100 µM (inactive) | > 100 µM (inactive) | > 100 µM (inactive) | > 100 µM (inactive) | > 100 µM (inactive)
CC(C)OP(=O)(OC(C)C)C(C(F)(F)F)C(F)(F)F | > 100 µM (inactive) | > 100 µM (inactive) | > 100 µM (inactive) | > 100 µM (inactive) | > 100 µM (inactive) | > 100 µM (inactive) | > 100 µM | > 100 µM (inactive) | > 100 µM (inactive) | > 100 µM (inactive) | > 100 µM (inactive) | > 100 µM (inactive) | > 100 µM (inactive) | > 100 µM (inactive) | > 100 µM (inactive) | > 100 µM (inactive) | > 100 µM (inactive) | > 100 µM (inactive) | > 100 µM (inactive) | > 100 µM (inactive)
